From patent EP1094711B1, “METHODS FOR ERADICATION OF NANOBACTERIA” (Nanobac Oy, priority 1998, dated 2000)
Where a name gives a salt, the structure may show the parent alone.

Columns and labels:
nanobacteria [1] = assay: Antibiotic sensitivity test by Minimal Inhibition Concentration (MIC), 96-well plates, absorbance at 650 nm; format: cell-based; conditions: for antinanobacterial effect in the in vitro test (in words): in vitro MIC test; for MIC 50: 50% inhibition; for MIC 50 / MIC 90: DMEM with 10% gamma-irradiated FBS
Experimental: Antibiotic sensitivity tests were carried out by measuring Minimal Inhibition Concentration (MIC), a common practice in clinical microbiology.
The tests were performed in 96-well plates. DMEM (commercial cell culture medium) containing 10% gamma-irradiated fetal bovine serum (FBS)(dose about 3 Mrads; this treatment inactivates nanobacteria in the serum so that the basic medium is sterile) was used as the basic culture medium. These components are commercially available, e.g., from Gibco. The antibiotic stock solutions were sterile filtered through 0.2 micrometer filters. The stock solutions were then serially diluted (into the basal culture medium) to provide a final starting concentration of 0.5 mg/ml and 1:2 dilutions therefrom, unless otherwise specified. For each antibiotic three parallel tests were performed using all the antibiotic dilutions and, additionally, positive and negative control experiments. […] 100 µl of dilutions of the nanobacteria inoculum were added to all wells except the negative controls. The plates were incubated at mammalian cell culture conditions (37° Celsius, 5% carbon dioxide, 95% humid air). The absorbance values at 650 nm were recorded by using an ELISA reader at the start, and at 4, 8, 12, 14 days. […] Calculations were based on absorbance curves where absorbance was plotted against concentration of the antibiotic.

nanobacteria [2] = conditions: Kajander et al. 1997; cited from earlier work
nanobacteria [3] = assay: Treatment of human patients infected with nanobacteria; conditions: person with chronic fatigue syndrome; 500 mg 4 times per day for one month; after one month therapy
nanobacteria [4] = assay: Antibiotic sensitivity test by Minimal Inhibition Concentration (MIC), 96-well plates, absorbance at 650 nm; format: cell-based; conditions: culture medium, 37° Celsius
serum nanobacteria = assay: Antibiotic sensitivity test of serum nanobacteria with cell culture antibiotics; format: cell-based; conditions: 100 µg/ml, one month, medium containing 10% fetal bovine serum
Experimental: Nanobacteria were cultured with 10% fetal bovine serum in DMEM medium (serum nanobacteria) for one month at 37°C in an atmosphere of 5% CO2 - 95% air. The cultures were harvested by centrifugation. For the autoclaving, UV, microwave, heating and drying treatments, the harvested nanobacteria were suspended in phosphate buffered saline (pH 7.4; PBS). After treatments, subculturing of the nanobacteria was made in 10% gamma irradiated fetal bovine serum in DMEM medium. The growth of serum nanobacteria was followed by light microscopy and absorbance measurement with a spectrophotometer at 650 nm.
The 1× concentrations are those recommended for cell culture. […]

nanobacteria [5] = assay: Nanobacterial growth and biofilm formation on stents with metal ions in the culture medium; format: cell-based; conditions: salts added to the culture medium
From the text: Nanobacteria also absorb some heavy metals. Nanobacteria can be stained well with silver or copper compounds. […] Silver and copper parts or platings on surfaces, such as catheters or stents, can provide an antinanobacterial effect by preventing nanobacterial biofilm formation. In in vitro tests nanobacteria avidly formed biofilm on two different commercial stents made of a plastic type of material. This biofilm formation was prevented by the addition of silver or copper salts to the culture medium.

[6] = 90% inhibition, 12 day time point

## O=C(O)CN(CCN(CC(=O)O)CC(=O)O)CC(=O)O [EDTA, ethylenediaminetetraacetic acid]
Nanobacteria [1]; 288 h, 90% inhibition, 12 day time point, read-out: MIC 90
  IC90: 2500 µM
Nanobacteria [1]; 288 h, read-out: MIC 50
  IC50: 300 µM
Nanobacteria [1]
  antinanobacterial effect in the in vitro test (in words): antinanobacterial effects
Nanobacteria [2]
  effect on growth of nanobacteria: inhibts growth

## CN(C)[C@@H]1C(O)=C(C(N)=O)C(=O)[C@@]2(O)C(O)=C3C(=O)c4c(O)cccc4[C@@](C)(O)[C@H]3C[C@@H]12 [tetracycline HCl]
Nanobacteria [3]
  nanobacteria status of the patient (urine and serum samples): nanobacteria negative

## Doxycycline
Nanobacteria [1]; 12 day time point
  MIC 50: 50 µg/mL
Nanobacteria [1]; [6]
  MIC 90: 80 µg/mL
Nanobacteria [1]
  antinanobacterial effect in the in vitro test (in words): effective on inhibiting nanobacterial growth
Nanobacteria [4]
  stability under the test conditions: not stable

## Gentamycin
Serum nanobacteria
  morphology of nanobacteria in SEM: changes in the morphology
Nanobacteria [1]; 12 day time point
  MIC 50: 60 µg/mL
Nanobacteria [1]; [6]
  MIC 90: 250 µg/mL
Nanobacteria [1]
  antinanobacterial effect in the in vitro test (in words): bacteriostatic effects at high antibiotic concentrations

## silver
Nanobacteria [5]
  biofilm formation on commercial stents: prevented
